From ChEMBL document CHEMBL3994634, “Synthesis of new chromeno-carbamodithioate derivatives and preliminary evaluation of their antioxidant activity and molecular docking studies” (Bioorg Med Chem Lett, 2017)
pIC50: −log10 of the molar value.

How the values were obtained:
[1] = Antioxidant activity assessed as […] radical scavenging activity by spectrophotometric method relative to control; format: functional; design: concentration or dose not given beside the values
[2] = Antioxidant activity assessed as inhibition of […] radical by spectrophotometric method; format: functional

| Compound | Activity [1] | pIC50 [2] |
| --- | --- | --- |
| Cc1oc2cc(OCC(O)CSC(=S)N3CCC(Cc4ccccc4)CC3)ccc2c(=O)c1C (stereo not given) | 31.8% | 2.80 |
| COc1ccccc1N1CCN(C(=S)SCC(O)COc2ccc3c(=O)c(C)c(C)oc3c2)CC1 (stereo not given) | 31.6% | 2.80 |
| Cc1oc2cc(OCC(O)CSC(=S)N3CCN(c4ccccc4)CC3)ccc2c(=O)c1C (stereo not given) | 24.8% | 2.65 |
| Cc1oc2cc(OCC(O)CSC(=S)N3CCN(c4ccc(F)cc4)CC3)ccc2c(=O)c1C (stereo not given) | 24.8% | 2.69 |
| CCN(CC)C(=S)SCC(O)COc1ccc2c(=O)c(C)c(C)oc2c1 (stereo not given) | 29.5% | 2.77 |
| Cc1oc2cc(OCC(O)CSC(=S)N3CCN(Cc4ccc5c(c4)OCO5)CC3)ccc2c(=O)c1C (stereo not given) | 36.8% | 2.86 |
| Cc1oc2cc(OCC(O)CSC(=S)N3CCOCC3)ccc2c(=O)c1C (stereo not given) | 35.6% | 2.85 |
| Cc1oc2cc(OCC(O)CSC(=S)N3CCN(C)CC3)ccc2c(=O)c1C (stereo not given) | 29.4% | 2.76 |
| O=C1O[C@H]([C@@H](O)CO)C(O)=C1O [ASCORBIC ACID] | 30.4% | 2.78 |
| Cc1oc2cc(OCC(O)CSC(=S)N3CCN(C(c4ccccc4)c4ccccc4)CC3)ccc2c(=O)c1C (stereo not given) | 30.9% | 2.79 |
